Experimental data reported in ChEMBL document CHEMBL4402592, “Targeting Endoplasmic Reticulum α-Glucosidase I with a Single-Dose Iminosugar Treatment Protects against Lethal Influenza and Dengue Virus Infections” (J Med Chem, 2020).
Calls of active or inactive are those of the source. The rule behind the calls is not given here.

Tests used:
Mus musculus [1] = assay: In vivo inhibition of ERGlu1 in BALB/c mouse assessed as increase in tri-glucosylated FOS level in serum at >250 mg/kg, po administered via gavage as single dose at 8 hrs post-infection measured at 8 hrs post-dose by NP-HPLC analysis; type: functional, organism-based
Influenza A virus [2] = assay: Antiviral activity against Influenza A virus (A/Texas/36/1991(H1N1)) infected in BALB/c mouse assessed as animal survival at 100 mg/kg, po administered via gavage starting at 8 hrs post-infection and continuing TID for 5 days (reference value: 0%); type: functional
Mus musculus [3] = assay: In vivo inhibition of ERGlu2 in BALB/c mouse assessed as increase in mono-glucosylated FOS level in serum at 100 mg/kg, po administered via gavage starting at 8 hrs post-infection and continuing tid for 5 days and measured at 8 hrs post-final dose by NP-HPLC analysis; type: functional, organism-based
Influenza A virus [4] = assay: Antiviral activity against Influenza A virus (A/Texas/36/1991(H1N1)) infected in BALB/c mouse assessed as animal survival at 500 mg/kg, po administered via gavage as three doses at 8, 32 and 56 hrs post infection (reference value: 0%); type: functional
Influenza A virus [5] = assay: Antiviral activity against Influenza A virus (A/Texas/36/1991(H1N1)) infected in BALB/c mouse assessed as animal survival at 750 mg/kg, po administered via gavage as single dose at 16 hrs post infection (reference value: 0%); type: functional
Influenza A virus [6] = assay: Antiviral activity against Influenza A virus (A/Texas/36/1991(H1N1)) infected in BALB/c mouse assessed as animal survival at 500 mg/kg, po administered via gavage as single dose at 16 hrs post infection (reference value: 0%); type: functional
Influenza A virus [7] = assay: Antiviral activity against Influenza A virus (A/Texas/36/1991(H1N1)) infected in BALB/c mouse assessed as animal survival at 750 mg/kg, po administered via gavage as single dose at 24 hrs post infection (reference value: 0%); type: functional
Influenza A virus [8] = assay: Antiviral activity against Influenza A virus (A/Texas/36/1991(H1N1)) infected in BALB/c mouse assessed as animal survival at 500 mg/kg, po administered via gavage as single dose at 24 hrs post infection (reference value: 0%); type: functional
Influenza A virus [9] = assay: Antiviral activity against Influenza A virus (A/Texas/36/1991(H1N1)) infected in BALB/c mouse assessed as median death time at 100 mg/kg, po administered via gavage starting at 8 hrs post-infection and continuing TID for 5 days; type: functional
Influenza A virus [10] = assay: Antiviral activity against Influenza A virus (A/Texas/36/1991(H1N1)) infected in BALB/c mouse assessed as median death time at 250 mg/kg, po administered via gavage as single dose at 8 hrs post infection; type: functional
Influenza A virus [11] = assay: Antiviral activity against Influenza A virus (A/Texas/36/1991(H1N1)) infected in BALB/c mouse assessed as median death time at 250 mg/kg, po administered via gavage as two doses at 8 hrs and 32 hrs post infection (reference value: 9 days); type: functional
dengue virus type 2 [12] = assay: Antiviral activity against Dengue virus 2 S221 infected in DENV antibody dependent enhancement AG129 mouse model assessed as animal survival at 375 mg/kg, po administered via gavage as two doses at 8 and 24 hrs post infection (reference value: 4%); type: functional
dengue virus type 2 [13] = assay: Antiviral activity against Dengue virus 2 S221 infected in DENV antibody dependent enhancement AG129 mouse model assessed as animal survival at 375 mg/kg, po administered via gavage as two doses at 24 and 40 hrs post infection (reference value: 4%); type: functional
dengue virus type 2 [14] = assay: Antiviral activity against Dengue virus 2 S221 infected in DENV antibody dependent enhancement AG129 mouse model assessed as animal survival at 750 mg/kg, po administered via gavage as two doses at 24 and 40 hrs post infection (reference value: 4%); type: functional
dengue virus type 2 [15] = assay: Antiviral activity against Dengue virus 2 S221 infected in DENV antibody dependent enhancement AG129 mouse model assessed as animal survival at 375 mg/kg, po administered via gavage as two doses at 36 and 52 hrs post infection (reference value: 4%); type: functional
dengue virus type 2 [16] = assay: Antiviral activity against Dengue virus 2 S221 infected in DENV antibody dependent enhancement AG129 mouse model assessed as animal survival at 500 mg/kg, po administered via gavage as two doses at 36 and 52 hrs post infection (reference value: 4%); type: functional
dengue virus type 2 [17] = assay: (§1) Antiviral activity against Dengue virus 2 S221 infected in DENV antibody dependent enhancement AG129 mouse model assessed as reduction in IL10 level at 750 mg/kg, po administered via gavage as single dose at 36 hrs post infection measured at 60 hrs post-infection by electrochemiluminescence based method; type: functional, organism-based
dengue virus type 2 [18] = assay: as §1, with “IFN-gamma” for “IL10”, “72” for “60”; type: functional, organism-based
dengue virus type 2 [19] = assay: as §1, with “IL-12/IL-23p40” for “IL10”, “72” for “60”; type: functional, organism-based
dengue virus type 2 [20] = assay: as §1, with “IL-12/IL-23p40” for “IL10”, “two doses” for “single dose”, “36 hrs and 52” for “36”, “72” for “60”; type: functional, organism-based
dengue virus type 2 [21] = assay: as §1, with “KC-GRO” for “IL10”, “two doses” for “single dose”, “36 hrs and 52” for “36”, “72” for “60”; type: functional, organism-based
Mus musculus [22] = assay: In vivo inhibition of ERGlu1 in BALB/c mouse assessed as increase in tri-glucosylated FOS level in spleen at >250 mg/kg, po administered via gavage as single dose at 8 hrs post-infection and measured at 8 hrs post dose by NP-HPLC analysis; type: functional, organism-based
[23] = Half life in BALB/c mouse at 5 mg/kg, iv or 200 mg/kg, po measured upto 48 hrs by LC-MS/MS analysis; type: ADME, organism-based; settings: in vivo
Influenza A virus [24] = assay: Antiviral activity against Influenza A virus (A/Texas/36/1991(H1N1)) infected in BALB/c mouse assessed as increase in animal survival rate at 100 mg/kg, po administered via gavage starting at 8 hrs post-infection and continuing TID for 5 days; type: functional, organism-based
dengue virus type 2 [25] = assay: Antiviral activity against Dengue virus 2 S221 infected in DENV antibody dependent enhancement AG129 mouse model assessed as reduction in viremia by measuring foci of BHK21 cells containing DENV E at 750 mg/kg, po administered via gavage as two doses at 36 hrs and 52 hrs post infection measured after titration of compound treated infected animal serum with BHK21 cells by TrueBlue staining based focus forming assay; type: functional, organism-based
dengue virus type 2 [26] = assay: as §1, with “TNF-lapha” for “IL10”, “two doses” for “single dose”, “36 hrs and 52” for “36”, “52” for “60”; type: functional, organism-based
Cynomolgus monkey = assay: In vivo inhibition of ERGlu2 in cynomolgus monkey serum assessed as increase in mono-glucosylated FOS level in serum at 26 to 258 mg/kg, po administered via gavage as single dose and measured up to 72 hrs post-dose by NP-HPLC analysis; type: functional, organism-based; settings: Macaca fascicularis
Mus musculus [27] = assay: In vivo inhibition of ERGlu1 in BALB/c mouse assessed as increase in mono-glucosylated FOS level in spleen at 100 to 1000 mg/kg, po administered via gavage at 8 hrs post-infection and measured at 8 hrs post-dose by NP-HPLC analysis; type: functional, organism-based

COCCCCCCCCCN1C[C@H](O)[C@@H](O)[C@H](O)[C@H]1CO.Cl
inhibition (Mus musculus [1]): Active
survival at 100 mg/kg (Influenza A virus [2]): 90%
inhibition (Mus musculus [3]): Active
survival at 500 mg/kg (Influenza A virus [4]): 100%
survival at 750 mg/kg (Influenza A virus [5]): 70%
survival at 500 mg/kg (Influenza A virus [6]): 40%
survival at 750 mg/kg (Influenza A virus [7]): 30%
survival at 500 mg/kg (Influenza A virus [8]): 30%
Time (Influenza A virus [9]): >14 days
Time (Influenza A virus [10]): 8 days
Time (Influenza A virus [11]): >14 days
survival at 375 mg/kg (dengue virus type 2 [12]): 82%
survival at 375 mg/kg (dengue virus type 2 [13]): 100%
survival at 750 mg/kg (dengue virus type 2 [14]): 89%
survival at 375 mg/kg (dengue virus type 2 [15]): 100%
survival at 500 mg/kg (dengue virus type 2 [16]): 86%
Activity (dengue virus type 2 [17]): Active
Activity (dengue virus type 2 [18]): Active
Activity (dengue virus type 2 [19]): Active
Activity (dengue virus type 2 [20]): Active
Activity (dengue virus type 2 [21]): Active
inhibition (Mus musculus [22]): Active
half-life [23]: 5 h
Activity (Influenza A virus [24]): Active
Activity (dengue virus type 2 [25]): Active
Activity (dengue virus type 2 [26]): Active
inhibition (Cynomolgus monkey): Active
inhibition (Mus musculus [27]): Active
